“Also recorded” adds a separate entry of the source.
B1: Papain (protein, UniProt P00784 134-345, looked up)
Papain: IPEYVDWRQKGAVTPVKNQGSCGSCWAFSAVVTIEGIIKIRTGNLNEYSEQELLDCDRRSYGCNGGYPWSALQLVAQYGIHYRNTYPYEGVQRYCRSREKGPYAAKTDGVRQVQPYNEGALLYSIANQPVSVVLEAAGKDFQLYRGGIFVGPCGNKVDHAVAAVGYGPNYILIKNSWGTGWGENGYIRIKRGTGNSYGVCGLYTSSFYPVKN

Columns and labels:
[1] = tested on: HUVEC; test: MTT assay with treated HUVEC (antiproliferative activity); format: cell-based, Human; conditions: for inhibition of VEGF stimulated proliferation (MTT): VEGF stimulated HUVEC, FIG. 5; for inhibition of VEGF stimulated proliferation (MTT) / % growth (MTT) / antiproliferative effect (MTT), in words: 48 hours; for % growth (MTT): at concentrations as low as 25 μg/ml; for antiproliferative effect (MTT), in words: concentration-response
Procedure: The antiproliferative activity of bromelain, nattokinase and papain and their mixtures was assessed using an 3-(4,5-dimethylthiazol-2-yl)-2,5-diphenyltetrazoliumbromide (MTT) assay. […] Cells were incubated further 48 hours at 37° C./95% humidity. The MTT Assay was carried out using an EZ4U MTT Kit (Biomedica, Austria; according to the instructions of the manufacturer). Optical density was measured at 450 nm with a reference wavelength of 620 nm. Results are expressed as % proliferation with 100% being the proliferation of the VEGF treated control.
To assess a possible antiproliferative activity of Rutosid an 3-(4,5-dimethylthiazol-2-yl)-2,5-diphenyltetrazoliumbromide (MTT) Assay was used. […] Cells were incubated further 48 hours at 37° C./95% humidity. The MTT-Assay was carried out using a EZ4U MTT Kit (Biomedica, Austria) according to the instructions of the manufacturer) Optical density was measured at 450 nm with a reference wavelength of 620 nm. Results are expressed as % proliferation with 100% being the proliferation of the VEGF treated control.

[2] = tested on: HUVEC
Procedure: (§1) The antiproliferative activity of bromelain, nattokinase and papain was assessed using a Lactate Dehydrogenase (LDH) Assay. Human Umbilical Vein Endothelial Cells (HUVEC) from semi-confluent cultures were harvested by treatment with trypsin, seeded at a density of 2500 cells/well into 96-well microplates, previously coated with human fibronectin. In oder to allow proper attachment, cells were incubated for 24 hours in Endothelial Basal medium 2MV (Cambrex Biochemicals) containing 10% Fetal Calf Serum, 60 μg/ml Endothelial cell Growth Supplement, hrEGF, hrFGF2, hrIGF, hrVEGF, Ascorbic Acid and Heparin. After attachment, cells were starved by incubation at 37° C./95% humidity in Medium 199+10% Fetal Calf Serum (FCS) without growth factors. After 24 hours, the supernatant was replaced by Medium 199 containing 10% FCS, VEGF and varying concentrations of the enzymes. After an incubation period of 48 hours, supernatant was harvested and an LDH assay was performed according to the instructions of the manufacturer (Promega, Germany): 50 μl aliquots from all wells were transferred to a fresh 96-well flat-bottom (enzymatic assay) plate. The Assay Buffer was added to the Substrate Mix and mixed gently. 50 μl of reconstituted Substrate Mix was added to each well. The plate was incubated for 30 minutes at room temperature. 50 μl of Stop Solution was added to each well. Within one hour, optical density was measured at 490 nm with a reference wavelength of 620 nm. Results are expressed as % untreated control.
(§2) To test a possible cytotoxic activity of rutosid an Lactate Dehydrogenase (LDH) Assay was used. Human Umbilical Vein Endothelial Cells (HUVEC) from semi-confluent cultures were harvested by treatment with trypsin, seeded at a density of 2500 cells/well into 96-well microplates, previously coated with human fibronectin. In oder to allow proper attachment, cells were incubated for 24 hours in Endothelial Basal medium 2MV (Cambrex Biochemicals) containing 10% Fetal Calf Serum, 60 μg/ml Endothelial cell Growth Supplement, hrEGF, hrFGF-2, hrIGF, hrVEGF, ascorbic acid and heparin. After attachment, cells were starved by incubation at 37° C./95% humidity in Medium 199+10% Fetal Calf Serum (FCS) without growth factors. After 24 hours, the supernatant was replaced by Medium 199 containing 10% FCS, VEGF and varying concentrations of the enzymes. After an incubation period of 48 hours, supernatant was harvested and an LDH assay was performed according to the instructions of the manufacturer (Promega, Germany): 50 μl aliquots from all wells where transferred to a fresh 96-well flat-bottom (enzymatic assay) plate. […] Within one hour, optical density was measured at 490 nm with a reference wavelength of 620 nm. Results are expressed as % untreated control.

[3] = tested on: HUVEC; test: LDH release into supernatant of treated HUVEC (toxicity test); conditions: up to a level of including 25 μg/ml; 2 days of incubation
Procedure: as §1, §2

[4] = tested on: HUVEC; test: Tube formation assay on Matrigel (antiangiogenic activity); format: cell-based, Human; conditions: for inhibition of VEGF induced tube formation: FIG. 3, FIG. 7 right; for inhibition of spontaneous tube formation: no VEGF, FIG. 7 left; for ability to inhibit or prevent angiogenesis: general statement on proteases of mammalian origin
Procedure: Methods: Antiangiogenic activity was assessed using a tube formation assay. Growth factor reduced Matrigel (Becton Dickinson, Vienna) was thawed at a temperature of 4° C. 50 μl per well were pipetted into the wells of a 96 well microtiter plate. The plate was left at 4° C. for 24 hours. Prior to the experiment, the plate was incubated for 30-60 minutes at 37° C. to solidify the gel. HUVEC were harvested by treatment with trypsin and seeded into Matrigel coated 96 well microplates at a density of 20.000 cells per well in Endothelial Growth Medium 2(MV) (Lonza, Brussels) supplemented with ascorbic acid and hydrocortisone according to the instructions of the manufacturer as well as […] heparin and 1% Fetal Bovine Serum. Drugs and VEGF were added to the desired concentrations. After further 16 hrs to 18, wells were photographed. The total length of tubes was determined using the ImageJ Software, measured by the Neuron Length Determination Plugin.

Molecule	antiproliferative effect (MTT), in words [1]	toxic effects on HUVEC (LDH release) [3]	inhibition of VEGF induced tube formation [4]	inhibition of spontaneous tube formation [4]	other results
C[C@@H]1O[C@@H](OC[C@H]2O[C@@H](Oc3c(-c4ccc(O)c(O)c4)oc4cc(O)cc(O)c4c3=O)[C@H](O)[C@@H](O)[C@@H]2O)[C@H](O)[C@H](O)[C@H]1O [Rutosid]					inhibition of VEGF stimulated proliferation (MTT) [1]: No inhibition of proliferation; inhibition of VEGF stimulated proliferation (MTT) ([1]; listed as rutosid): does not inhibit; toxicity in HUVEC (LDH), overall [2]: negligible
Bromelain	clear antiproliferative effect	did not show toxic effects	inhibited formation of tubes almost to the same extend as in untreated HUVEC	inhibited formation of tubes	% growth (MTT) ([1]; 100% = VEGF treated control): 75%; inhibition of VEGF induced tube formation ([4]; listed as bromelain): significant decrease
Nattokinase	clear antiproliferative effect	did not show toxic effects	significant decrease; also recorded: inhibited formation of tubes almost to the same extend as in untreated HUVEC	inhibited formation of tubes	
chymotrypsin [reference compound]			but not chymotrypsin or trypsin inhibited formation of tubes	but not chymotrypsin or trypsin inhibited formation of tubes	ability to inhibit or prevent angiogenesis [4]: not able to inhibit or prevent angiogenesis
ficin			significant decrease; also recorded: inhibited formation of tubes almost to the same extend as in untreated HUVEC	inhibited formation of tubes	
serrapeptase			significant decrease; also recorded: inhibited formation of tubes almost to the same extend as in untreated HUVEC	inhibited formation of tubes	
trypsin [reference compound]			but not chymotrypsin or trypsin inhibited formation of tubes	but not chymotrypsin or trypsin inhibited formation of tubes	ability to inhibit or prevent angiogenesis [4]: not able to inhibit or prevent angiogenesis
B1	clear antiproliferative effect	did not show toxic effects	significant decrease; also recorded: inhibited formation of tubes almost to the same extend as in untreated HUVEC	inhibited formation of tubes	% growth (MTT) ([1]; 100% = VEGF treated control): 75%; % Proliferation ([1]; combinations of bromelain, nattokinase and papain in presence of VEGF, 100% = VEGF treated control): 75.45%; % tube formation ([4]; in presence of VEGF, 100% = samples treated with VEGF only): 60.14%

From patent publication US9795656B2, “Treatment of ocular diseases” (MARLYN NUTRACEUTICALS INC, priority 2006, dated 2017)
